Assay [1] relates to B cell receptor (BCR) mediated phosphorylation cascade in murine spleen cells. The assay can be described thus: Murine B cell assay (B cell receptor mediated tyrosine phosphorylation). The class given is cell-based. Particulars: 100 μM in […] DMSO, anti-IgM stimulated murine spleen cells. On the procedure: Splenic lymphocytes were isolated from 6-20 week old Balb/c or C57/B6 mice. The cells were washed out of the spleen into RPMI media containing 1 mg/ml DNase I and the red blood cells were lysed in 17 mM tris-ammonium chloride (pH 7.2). Approximately 4×10^6 cells were incubated at 37° C. for thirty minutes with 100 μM of (3g) or (2) in 1.1% DMSO. B cell stimulation was initiated by the addition of […] of goat anti-mouse IgM (Jackson ImmunoResearch) and subsequent incubation for five minutes at 37° C. The cells were isolated by centrifugation (13,000 rpm, two minutes) and lysed (lysis buffer: 1% Triton x-100, 50 mM Tris (pH 7.4), 2 mM EDTA, 150 mM NaCl, 100 mM PMSF, 2 mM sodium orthovanadate, 10 mg/ml leupeptin, 10 mg/ml apoprotin). The cellular debris was then pelleted at 13,000 rpm for fifteen minutes. Cellular proteins were separated by 10% polyacrylamide gel electrophoresis and transferred to a nitrocellulose membrane by Western blotting. Phosphotyrosine containing proteins were visualized by immunoblotting with anti-phosphotyrosine antibody (Upstate Biotechnology).

A further assay deals with T1, WT Fyn (Homo sapiens, UniProt P06241).
T1 construct: GST; made in house; host or cells: E. coli DH5α (pGEX-KT)
T1 sequence (P06241 1-534 isoform P06241-2): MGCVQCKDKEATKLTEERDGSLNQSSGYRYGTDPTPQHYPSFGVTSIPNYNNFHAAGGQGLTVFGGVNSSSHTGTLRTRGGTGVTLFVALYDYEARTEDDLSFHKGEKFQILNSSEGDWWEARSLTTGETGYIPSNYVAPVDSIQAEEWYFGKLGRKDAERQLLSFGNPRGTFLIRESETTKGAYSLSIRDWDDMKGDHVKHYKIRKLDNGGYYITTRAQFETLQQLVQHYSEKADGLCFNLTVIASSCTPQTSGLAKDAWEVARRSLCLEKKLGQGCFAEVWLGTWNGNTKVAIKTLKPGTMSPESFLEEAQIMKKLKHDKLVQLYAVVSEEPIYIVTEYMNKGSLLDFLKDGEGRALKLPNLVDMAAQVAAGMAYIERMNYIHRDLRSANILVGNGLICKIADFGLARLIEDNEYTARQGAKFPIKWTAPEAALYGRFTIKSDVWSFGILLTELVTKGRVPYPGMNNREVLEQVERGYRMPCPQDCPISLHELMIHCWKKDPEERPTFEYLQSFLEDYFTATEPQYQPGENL
The assay can be described thus: In vitro kinase inhibition assay. It counts as biochemical.

The test system of assay [2] is NIH3T3 cells expressing v-Src. Briefly: Anti-phosphotyrosine blots of pyrazolopyrimidine treated NIH3T3 cells (Examples 18-19). The class given is cell-based. The following applies: FIG. 12B two left lanes.
Experimental: Anti-phosphotyrosine blots of pyrazolo pyrimidine (2-6) (25 μM) treated NIH3T3 cells expressing v-Src kinase were performed by lysing cells in modified RIPA buffer according to the method of Coussens et al. (1985) Biol. 2753-2763. Cells were also treated for various times before lysis and antiphosphotyrosine detection. Proteins were separated by 12.5% SDS-PAGE and transferred to Protran BA85 (Schleicher-Schuell). The blot was probed with the antiphosphotyrosine monoclonal antibody 4G10 (obtained from Dr. Brian Druker, Oregon Health Sciences Center) and the bound antibody was detected via enhanced chemiluminescence (Pierce) following treatment with HRP-coupled goat anti-mouse antibody (VWR) according to the manufacturer's instructions.
The assays were performed by making anti-phosphotyrosine blots of pyrazolopyrimidine (26) (25 μM) treated NIH3T3 cells expressing either v-Src or v-Src (I338G) kinases were performed by lysing cells in modified RIPA buffer according to the method of Coussens et al. (1985) Biol. 2753-2763. […]
(§4) The blot was probed with the anti-phosphotyrosine monoclonal antibody 4G10 and the bound antibody was detected via enhanced chemiluminescence (Pierce) following treatment with HRP-coupled goat-anti-mouse antibody (VWR) according to the manufacturer's instructions.
In assay [3] the test system is NIH3T3 cells expressing v-Src (I338G). The assay can be described thus: Anti-phosphotyrosine blots of pyrazolopyrimidine treated NIH3T3 cells (Example 19). The class given is cell-based.
Experimental: The assays were performed by making anti-phosphotyrosine blots of pyrazolopyrimidine (26) (25 μM) treated NIH3T3 cells expressing either v-Src or v-Src (I338G) kinases were performed by lysing cells in modified RIPA buffer according to the method of Coussens et al. (1985) Biol. 2753-2763. Cells were also treated for various times (in a cell culture CO2 incubator) before lysis and anti-phosphotyrosine detection. Proteins were separated by 12.5% SDS-PAGE and transferred to Protran BA85 (Schleicher-Schuell).
as §4
A further assay has as its target wild-type Fyn (Homo sapiens, UniProt P06241). Briefly: Peptide phosphorylation assay with [γ-32P]ATP (Example 13). The following applies: purified kinase; read-out: IC50 for inhibition of wild-type Fyn. The class given is biochemical. An excerpt: To identify compounds that would not inhibit any existing cellular kinases, Applicant screened the panel of synthetic pyrazolo pyramidine analogs (1-6) against two closely related purified tyrosine kinases, v-Src and Fyn, in a peptide phosphorylation assay using [γ-^32P]

In another assay the target is T2, PKCδ (Homo sapiens, UniProt Q05655).
T2 construct: 6-His; made in house; host or cells: Bac-to-Bac baculovirus system (pFastBac B vector)
T2 sequence (Q05655 whole entry): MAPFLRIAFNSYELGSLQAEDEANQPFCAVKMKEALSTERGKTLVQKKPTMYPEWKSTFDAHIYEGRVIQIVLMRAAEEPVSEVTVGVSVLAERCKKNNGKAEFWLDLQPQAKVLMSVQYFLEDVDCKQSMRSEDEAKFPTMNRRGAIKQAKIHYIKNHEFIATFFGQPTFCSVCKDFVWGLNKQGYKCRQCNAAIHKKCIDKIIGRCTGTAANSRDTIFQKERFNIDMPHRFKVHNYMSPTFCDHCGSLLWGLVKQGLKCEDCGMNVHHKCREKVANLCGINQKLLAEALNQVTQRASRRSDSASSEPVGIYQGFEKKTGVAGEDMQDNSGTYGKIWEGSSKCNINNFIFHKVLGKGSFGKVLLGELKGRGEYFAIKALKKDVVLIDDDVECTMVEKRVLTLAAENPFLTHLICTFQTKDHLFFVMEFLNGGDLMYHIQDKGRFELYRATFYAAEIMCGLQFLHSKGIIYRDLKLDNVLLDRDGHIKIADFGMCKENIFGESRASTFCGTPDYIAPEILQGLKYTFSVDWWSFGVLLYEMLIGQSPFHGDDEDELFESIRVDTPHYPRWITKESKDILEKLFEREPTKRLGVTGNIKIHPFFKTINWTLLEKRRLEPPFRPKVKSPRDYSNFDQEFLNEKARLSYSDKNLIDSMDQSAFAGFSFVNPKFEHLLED
The assay can be described thus: In vitro kinase inhibition assay. It counts as biochemical. Details: dose or concentration left out as unconfirmed. Here is the method: (§1) IC50's for non-src family kinases were measured equivalently with the following exceptions. […] An optimized Abl substrate, […] (SEQ ID NO: 18), 133 mg/ml) was used for Abl assays.

The target of a further assay is T3, PKA (Homo sapiens, UniProt P17612).
T3 construct: purchased Pierce
The assay can be described thus: In vitro kinase inhibition assay. The class given is biochemical. Particulars: concentrations up to 300 mM. Here is the method: as §1

Assay [4] relates to WT v-Src transformed NIH3T3 cells. Briefly: Inhibition of v-Src in NIH3T3 fibroblasts (phosphotyrosine blot). The class given is cell-based. The following applies: 100 μM, twelve hours. Here is the method:
(§2) Non-transformed NIH3T3 cells, WT v-Src transformed NIH3T3 cells, and I338G v-Src transformed NIH3T3 cells were incubated at 37° C. with 1.1% DMSO or 100 μM (3g) in 1.1% DMSO. After twelve hours, the cells were washed with PBS and lysed (lysis buffer: 1% Triton x-100, 50 mM tris (pH 7.4), 2 mM EDTA, 150 mM NaCl, […], 2 mM sodium orthovanadate, 10 mg/ml leupeptin, 10 mg/ml apoprotin). The lysate was clarified by centrifugation at 13,000 rpm for fifteen minutes. Lysate protein concentrations were normalized and equal volumes of the lysate were resolved electrophoretically and analyzed for phosphotyrosine content as described above.

Assay [5] has as its system I338G v-Src transformed NIH3T3 cells. Described as above. It counts as cell-based. Here is the method: as §2
The subject of assay [6] is I338G v-Src transformed NIH-3T3 fibroblasts. The assay can be described thus: Microscopy of transformed fibroblasts (light microscopy, phalloidin-FITC). It counts as cell-based. Particulars: 100 μM, 48 hours. Here is the method: (§3) Non-transformed, WT v-Src transformed, and I338G v-Src transformed NIH-3T3 fibroblasts were grown in DMEM/10% BCS on tissue culture treated slides. v-Src expressing cells were treated with either 1.1% DMSO or 100 μM (^3g) in 1.1% DMSO. After forty-eight hours cells were photographed at 400× magnification on an Nikon TMS light microscope. Immediately following light microscopy, the cells were fixed for twenty minutes in 3.7% formaldehyde/PBS and permeabilized for sixty seconds in 0.2% Triton x-100 in PBS. Permeabilized cells were incubated with 200 ng/ml phalloidin-FITC/PBS for twenty minutes. Slides were rinsed with PBS and polymerized actin was visualized by fluorescence microscopy at 600× magnification on a Zeiss fluorescence microscope.

The subject of assay [7] is WT v-Src transformed NIH-3T3 fibroblasts. Described as above. The class given is cell-based. Particulars: 100 μM, 48 hours. Here is the method:
as §3

The target in the next assay is T4, T339G Fyn (Homo sapiens, UniProt P06241, T342G).
T4 construct: GST; made in house; host or cells: E. coli DH5α (pGEX-KT)
T4 sequence (P06241 1-534 isoform P06241-2 T339G): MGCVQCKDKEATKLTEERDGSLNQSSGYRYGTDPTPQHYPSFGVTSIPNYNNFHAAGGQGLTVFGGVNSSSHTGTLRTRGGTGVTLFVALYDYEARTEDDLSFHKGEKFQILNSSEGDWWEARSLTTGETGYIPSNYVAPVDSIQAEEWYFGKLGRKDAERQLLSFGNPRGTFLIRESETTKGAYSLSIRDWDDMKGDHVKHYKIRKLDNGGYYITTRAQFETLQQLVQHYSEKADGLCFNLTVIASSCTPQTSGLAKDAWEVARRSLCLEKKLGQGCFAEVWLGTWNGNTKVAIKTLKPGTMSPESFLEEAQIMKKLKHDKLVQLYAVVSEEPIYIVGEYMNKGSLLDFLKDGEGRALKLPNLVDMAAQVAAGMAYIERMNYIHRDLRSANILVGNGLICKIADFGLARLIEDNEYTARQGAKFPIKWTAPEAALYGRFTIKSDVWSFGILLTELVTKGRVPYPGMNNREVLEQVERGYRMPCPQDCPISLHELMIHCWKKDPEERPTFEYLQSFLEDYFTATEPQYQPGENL
The assay can be described thus: In vitro kinase inhibition assay. It counts as biochemical.

The target in assay [8] is T5, I338G v-Src (Rous sarcoma virus subgroup A, UniProt P00524, DEL77-225/I338G).
T5 construct: made in house; host or cells: E. coli DH5α (pGEX-KT)
Briefly: biochemical.

The subject of assay [9] is I338G v-Src. The assay can be described thus: biochemical. On the set-up: species or system Rous sarcoma virus.

Entries after “also recorded” stand apart in the source; their conditions may differ.

The results in this text go back to US7049116B2, “Engineered protein kinases which can utilize modified nucleotide triphosphate substrates” (Princeton University, priority 1997, dated 2006).

wild-type Fyn, sequence (P06241 whole entry, species assumed): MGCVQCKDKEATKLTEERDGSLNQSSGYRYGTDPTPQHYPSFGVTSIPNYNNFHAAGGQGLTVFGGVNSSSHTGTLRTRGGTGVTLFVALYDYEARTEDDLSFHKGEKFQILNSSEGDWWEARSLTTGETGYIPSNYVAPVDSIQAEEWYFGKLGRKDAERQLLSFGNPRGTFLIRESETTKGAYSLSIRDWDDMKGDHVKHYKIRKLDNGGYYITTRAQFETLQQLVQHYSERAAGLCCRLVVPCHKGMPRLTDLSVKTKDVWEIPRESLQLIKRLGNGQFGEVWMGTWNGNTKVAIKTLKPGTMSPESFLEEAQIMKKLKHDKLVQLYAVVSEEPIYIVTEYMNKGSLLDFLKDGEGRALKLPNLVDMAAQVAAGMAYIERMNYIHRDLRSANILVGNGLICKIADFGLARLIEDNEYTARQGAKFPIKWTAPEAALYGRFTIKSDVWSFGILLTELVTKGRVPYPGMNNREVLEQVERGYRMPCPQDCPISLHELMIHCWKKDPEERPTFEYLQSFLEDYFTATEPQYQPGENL

Turning to `CC(C)(C)n1nc(-c2ccccc2)c2c(N)ncnc21` [(2), 4-amino-1-tert-butyl-3-phenylpyrazolo(3,4-d)pyrimidine, reference compound], the “phosphotyrosine pattern of B cell stimulation” value in assay [1] was “significant reduction in tyrosine phosphorylation”. Also, the “inhibition of WT Fyn (in words)” value on WT Fyn is “highly potent (low nM)”.

Usually IC50 stands for the concentration at which inhibition is half-maximal. Turning to `CC(C)(C)n1nc(-c2ccccc2)c2c(NC(=O)C3CCCC3)ncnc21` [Analog 3b, 4-cyclopentylamido-1-tert-butyl-3-phenylpyrazolo[3,4]pyrimidine], in assay [2], the phosphoprotein band pattern entry is listed as “does not inhibit wild type v-Src kinase”. Also, the “36 kDa phosphoprotein band” value in [3] (100 μM) is reported as “lost after treatment”. Moreover, in [3] (inhibitor diluted), the “inhibitor concentration at which phosphorylation of the 36 kDa band reappears” value is listed as below 5 pM. Moreover, the half-inhibitory concentration (IC50) on wild-type Fyn is above 400000 nM.

Usually Ki stands for the equilibrium dissociation constant of an inhibitor or competing ligand from its target. Consider `CC(C)(C)c1ccc(C(=O)Nc2ncnc3c2c(-c2ccccc2)nn3C(C)(C)C)cc1` [Analog 3g, 4-(p-tert-butyl)benzamido-1-tert-butyl-3-phenylpyrazolo[3,4-d]pyrimidine], for which, at PKCδ, the “inhibition of PKCδ” value is given as “not detectably inhibited”. Further, the “inhibition of PKA” value against PKA is reported as “not detectably inhibited”. Also, the “tyrosine phosphorylation in WT v-Src infected cells” value in assay [4] is “no loss of tyrosine phosphorylation”. In assay [5], the “cellular IC50 relative to the in vitro value” is reported as “roughly one-hundred times”. Besides, in assay [5] (100 μM, twelve hours), the “cellular level of phosphotyrosine” value is “moderate overall decrease”. Besides, the “tyrosine phosphorylation of p36” value in assay [5] (100 μM, twelve hours) is “dramatic diminution; also recorded: blocks p36 phosphorylation”. In addition, the IC50 in assay [5] (Mus musculus, NIH3T3, read-out: IC50 for p36 phosphotyrosine signal) turned out to be 50000 nM; against T339G Fyn it was 830 nM; against I338G v-Src [8], 430 nM. Besides, the results for the “polymerized actin pattern (phalloidin-FITC)” value in assay [6] (fluorescence microscopy) and in assay [7] (fluorescence microscopy) were “defined polymerized actin strings; also recorded: selectively regain actin stress fibers” and “indistinguishable from untreated WT cells”, respectively. In addition, the cell morphology entry was “dramatic changes in cell morphology which are consistent with the reversal of transformation; also recorded: selectively acquire a flattened morphology” in assay [6] (light microscopy); “prototypical rounded morphology and overlapping growth patterns of transformed cells” in assay [7] (light microscopy). Moreover, the “selectivity for T339G Fyn over WT Fyn” value on T339G Fyn is reported as “greater than 300 fold”. Further, the inhibitory constant (Ki) at I338G v-Src [8] was around 400 nM. Further, the mode of inhibition entry at I338G v-Src [8] (Lineweaver-Burk analysis) is reported as “competitively with respect to ATP”. Further, the “selectivity for engineered v-Src over WT Fyn” value in the assay on I338G v-Src [9] (I338G v-Src vs WT Fyn) is given as “over 700 times”. Besides, the “selectivity for mutant v-Src as compared to wild type” value with I338G v-Src [9] (I338G v-Src vs WT v-Src) was “at least a thousand-fold”.
